Results from EP3262036B1, “THERAPEUTIC PYRIDAZINE COMPOUNDS AND USES THEREOF” (priority 2015, dated 2016).

Tests used:
Test in all cases: biochemical
[1] = biological target: Polybromodomain-1 BromoDomain-5 (PB1-BD5) (Homo sapiens, UniProt Q86U86)
Source text: IC50 measurements for inhibitors using Polybromodomain-1 BromoDomain-5 (PB1-BD5) SM TR-FRET Binding Assay

[2] = biological target: BRM (Isoform 2) Bromodomain (Homo sapiens, UniProt P51531)
Source text: IC50 measurements for inhibitors using BRM SM TR-FRET Binding Assay

[3] = biological target: BRG1 (Homo sapiens, UniProt P51532); assay type: binding; conditions: BRG1 HTRF IC50 (µM)
Source text: IC50 measurements for inhibitors using BRG1 TR-FRET Binding Assay

Sequence of Polybromodomain-1 BromoDomain-5 (PB1-BD5) (Q86U86 645-766): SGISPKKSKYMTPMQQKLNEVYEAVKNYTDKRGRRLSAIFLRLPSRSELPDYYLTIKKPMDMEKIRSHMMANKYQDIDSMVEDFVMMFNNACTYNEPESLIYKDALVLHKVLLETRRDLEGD
Sequence of BRM (Isoform 2) Bromodomain (P51531 1377-1486 isoform P51531-2): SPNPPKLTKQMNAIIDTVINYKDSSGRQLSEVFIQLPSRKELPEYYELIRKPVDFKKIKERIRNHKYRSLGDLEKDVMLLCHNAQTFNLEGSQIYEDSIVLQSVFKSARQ
Sequence of BRG1 (P51532 1448-1575): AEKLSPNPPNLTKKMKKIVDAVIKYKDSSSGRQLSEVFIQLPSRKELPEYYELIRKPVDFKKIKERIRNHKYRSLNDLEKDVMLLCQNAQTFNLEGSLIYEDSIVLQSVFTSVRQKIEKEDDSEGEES

Question: How did the IC50 [1] turn out when `CC1CN(c2cc(-c3ccccc3O)nnc2N)CC(C)O1` (racemic) [Example 33, 2-(6-amino-5-(2,6-dimethylmorpholino)pyridazin-3-yl)phenol] was run?
Answer: Its IC50 is 24 nM.

Question: And the IC50 [2]?
Answer: The IC50 was 69.6 nM.

Question: Which IC50 [1] does the source give for `Nc1nnc(-c2ccccc2O)cc1N1CCN(Cc2cccnc2)CC1` [Example 3, 2-(6-amino-5-(4-(pyridin-3-ylmethyl)piperazin-1-yl)pyridazin-3-yl)phenol] here?
Answer: Its IC50 is 25.2 nM.

Question: And the IC50 [3]?
Answer: Its IC50 is 0.0373 µM.

Question: How did the IC50 [1] turn out when `CC(=O)N1CCN(c2cc(-c3ccccc3O)nnc2N)CC1` [Example 4, 1-(4-(3-amino-6-(2-hydroxyphenyl)pyridazin-4-yl)piperazin-1-yl)ethan-1-one] was run?
Answer: Its IC50 is 24.6 nM.

Question: What about the IC50 [2] of the same compound?
Answer: The IC50 was 71.7 nM.

Question: And the IC50 [3]?
Answer: Its IC50 is 0.0659 µM.

Question: `CN(C)CC1CCN(c2cc(-c3ccccc3O)nnc2N)CC1` [Example 5, 2-(6-amino-5-(4-((dimethylamino)methyl)piperidin-1-yl)pyridazin-3-yl)phenol] was tested. Which IC50 [2] did it give?
Answer: Its IC50 is 22.5 nM.

Question: And the IC50 [3]?
Answer: Its IC50 is 0.0395 µM.

Question: Which results are given for `Nc1nnc(-c2ccccc2O)cc1N1C[C@H]2CN(Cc3ccccc3)C[C@H]2C1` [Example 9, 2-(6-amino-5-((3aR,6aS)-5-benzylhexahydropyrrolo[3,4-c]pyrrol-2(1H)-yl)pyridazin-3-yl)phenol]?
Answer: IC50 [1]: 18.2 nM; IC50 [2]: 47.6 nM; IC50 [3]: 0.0615 µM

Question: For `CC(c1ccccc1)N1CCN(c2cc(-c3ccccc3O)nnc2N)CC1` (stereo not drawn) [Example 15, 2-(6-amino-5-(4-(1-phenylethyl)piperazin-1 - yl)pyridazin-3-yl)phenol], which IC50 [1] is on record?
Answer: Its IC50 is 24.5 nM.

Question: What about the IC50 [2] of the same compound?
Answer: The IC50 was 36.1 nM.

Question: What does the source list for `Nc1nnc(-c2ccccc2O)cc1N1CC2CCC(C1)N2Cc1ccccc1` [Example 16, 2-(6-amino-5-(8-benzyl-3,8-diazabicyclo[3.2.1]octan-3-yl)pyridazin-3-yl)phenol]?
Answer: IC50 [1]: 51.3 nM; IC50 [2]: 79 nM; IC50 [3]: 0.0563 µM

Question: `Nc1nnc(-c2ccccc2O)cc1N1CCOCC1` [Example 45, 2-(6-amino-5-morpholinopyridazin-3-yl)phenol] was tested. Which IC50 [1] did it give?
Answer: Its IC50 is 20.9 nM.

Question: What about the IC50 [2] of the same compound?
Answer: Its IC50 is 71.5 nM.

Question: What about the IC50 [3] of the same compound?
Answer: Its IC50 is 0.101 µM.

Question: With `Nc1nnc(-c2ccccc2O)cc1N1CC(Oc2ccccc2)C1` [Example 57, 2-(6-amino-5-(3-phenoxyazetidin-1-yl)pyridazin-3-yl)phenol] as the compound, how does the IC50 [2] read?
Answer: Its IC50 is 35.6 nM.

Question: What about the IC50 [3] of the same compound?
Answer: The IC50 was 0.0177 µM.

Question: Which results are given for `CS(=O)(=O)N1CCN(c2cc(-c3ccccc3O)nnc2N)CC1Cc1ccccc1` (stereo not drawn) [Example 119, 2-(6-amino-5-(3-benzyl-4-(methylsulfonyl)piperazin-1-yl)pyridazin-3-yl)phenol]?
Answer: IC50 [1]: 23.3 nM; IC50 [3]: 0.0385 µM

Question: For `CC1CN(c2cc(-c3ccccc3O)nnc2N)CCN1C(=O)C(C)(C)C` (stereo not drawn) [Example 129, 1-(4-(3-amino-6-(2-hydroxyphenyl)pyridazin-4-yl)-2-methylpiperazin-1-yl)-2,2-dimethylpropan-1-one], which IC50 [1] is on record?
Answer: The IC50 was 6.8 nM.

Question: What about the IC50 [2] of the same compound?
Answer: The IC50 was 18.4 nM.

Question: What about the IC50 [3] of the same compound?
Answer: Its IC50 is 0.0104 µM.

Question: For `CC(Oc1cc(-c2ccccc2O)nnc1N)C1CCOCC1` (stereo not drawn) [Example 168, 2-(6-amino-5-(1-(tetrahydro-2H-pyran-4-yl)ethoxy)pyridazin-3-yl)phenol], which IC50 [1] is on record?
Answer: The IC50 was 113 nM.

Question: And the IC50 [2]?
Answer: The IC50 was 197 nM.

Question: What about the IC50 [3] of the same compound?
Answer: The IC50 was 0.169 µM.

Question: `C[C@H](Oc1cc(-c2ccccc2O)nnc1N)c1ccccc1` [Example 170, (S)-2-(6-amino-5-(1-phenylethoxy)pyridazin-3-yl)phenol] was tested. Which IC50 [1] did it give?
Answer: Its IC50 is 9.6 nM.

Question: What about the IC50 [2] of the same compound?
Answer: Its IC50 is 14.9 nM.

Question: For `CN(C)CCOc1cc(-c2ccccc2O)nnc1N` [Example 173, 2-(6-amino-5-(2-(dimethylamino)ethoxy)pyridazin-3-yl)phenol], which IC50 [1] is on record?
Answer: The IC50 was 257 nM.

Question: And the IC50 [2]?
Answer: The IC50 was 276 nM.

Question: What about the IC50 [3] of the same compound?
Answer: Its IC50 is 0.263 µM.

Question: Which results are given for `Nc1nnc(-c2ccccc2O)cc1OCCc1ccccc1` [Example 174, 2-(6-amino-5-phenethoxypyridazin-3-yl)phenol]?
Answer: IC50 [1]: 8.8 nM; IC50 [2]: 19 nM; IC50 [3]: 0.0148 µM

Question: Which results are given for `CC(Cc1ccccc1)Oc1cc(-c2ccccc2O)nnc1N` (stereo not drawn) [Example 177, 2-(6-amino-5-((1-phenylpropan-2-yl)oxy)pyridazin-3-yl)phenol]?
Answer: IC50 [1]: 29.2 nM; IC50 [2]: 92.5 nM; IC50 [3]: 0.1 µM

Question: Which results are given for `CC(COc1cc(-c2ccccc2O)nnc1N)c1ccccc1` (stereo not drawn) [Example 178, 2-(6-amino-5-(2-phenylpropoxy)pyridazin-3-yl)phenol]?
Answer: IC50 [1]: 5.3 nM; IC50 [2]: 7.2 nM; IC50 [3]: 0.0122 µM

Question: Which IC50 [1] does the source give for `Nc1nnc(-c2ccccc2O)cc1OC1CCN(Cc2ccccc2)C1` (stereo not drawn) [Example 180, 2-(6-amino-5-((1-benzylpyrrolidin-3-yl)oxy)pyridazin-3-yl)phenol] here?
Answer: The IC50 was 43.9 nM.

Question: What about the IC50 [2] of the same compound?
Answer: The IC50 was 59.7 nM.

Question: And the IC50 [3]?
Answer: Its IC50 is 0.0432 µM.

Question: For `Cn1cc(-c2cc(-c3ccccc3O)nnc2N)cn1` [Example 187, 2-(6-amino-5-(1-methyl-1H-pyrazol-4-yl)pyridazin-3-yl)phenol], which IC50 [1] is on record?
Answer: Its IC50 is 3.7 nM.

Question: And the IC50 [2]?
Answer: Its IC50 is 10 nM.

Question: Which results are given for `CC(c1ccccc1)n1cc(-c2cc(-c3ccccc3O)nnc2N)cn1` (stereo not drawn) [Example 188, 2-(6-amino-5-(1-(1-phenylethyl)-1H-pyrazol-4-yl)pyridazin-3-yl)phenol]?
Answer: IC50 [1]: 2.5 nM; IC50 [2]: 5.7 nM

Question: Which results are given for `CN(C)Cc1ccc(-c2cc(-c3ccccc3O)nnc2N)cc1` [Example 189, 2-(6-amino-5-(4-((dimethylamino)methyl)phenyl)pyridazin-3-yl)phenol]?
Answer: IC50 [1]: 28.8 nM; IC50 [2]: 49.3 nM; IC50 [3]: 0.0222 µM

Question: For `CNc1ccc(-c2ccccc2O)nn1` [Example 204, 2-(6-(methylamino)pyridazin-3-yl)phenol], which IC50 [1] is on record?
Answer: Its IC50 is 349 nM.

Question: What about the IC50 [2] of the same compound?
Answer: The IC50 was 1040 nM.

Question: What about the IC50 [3] of the same compound?
Answer: Its IC50 is 0.893 µM.

Question: `Nc1nnc(-c2ccccc2O)cc1C1CCCC1` [Example 210, 2-(6-amino-5-cyclopentylpyridazin-3-yl)phenol] was tested. Which IC50 [1] did it give?
Answer: Its IC50 is 14.9 nM.

Question: What about the IC50 [2] of the same compound?
Answer: The IC50 was 25 nM.

Question: And the IC50 [3]?
Answer: The IC50 was 0.0239 µM.

Question: Which IC50 [1] does the source give for `Nc1nnc(-c2ccccc2O)cc1C1CCN(S(=O)(=O)c2ccccc2)C1` (stereo not drawn) [Example 217, 2-(6-amino-5-(1-(phenylsulfonyl)pyrrolidin-3-yl)pyridazin-3-yl)phenol] here?
Answer: The IC50 was 268 nM.

Question: What about the IC50 [2] of the same compound?
Answer: The IC50 was 466 nM.

Question: And the IC50 [3]?
Answer: Its IC50 is 0.412 µM.

Question: For `Nc1nnc(-c2ccccc2O)cc1C1CCN(Cc2ccccc2)CC1` [Example 218, 2-(6-amino-5-(1-benzylpiperidin-4-yl)pyridazin-3-yl)phenol], which IC50 [1] is on record?
Answer: Its IC50 is 44.8 nM.

Question: And the IC50 [3]?
Answer: The IC50 was 0.0553 µM.

Question: For `Nc1nnc(-c2ccccc2O)cc1C(=O)NCc1ccccc1` [Example 234, 3-amino-N-benzyl-6-(2-hydroxyphenyl)pyridazine-4-carboxamide], which IC50 [3] is on record?
Answer: Its IC50 is 0.102 µM.

Question: `C[C@@H]1CN(c2cc(-c3ccccc3O)nnc2N)C[C@@H](C)O1` [Example 242, 2-[6-amino-5-[(2R,6R)-2,6-dimethylmorpholin-4-yl]pyridazin-3-yl]phenol] was tested. Which IC50 [3] did it give?
Answer: Its IC50 is 0.0589 µM.

Question: With `C[C@@H]1CN(c2cc(-c3ccccc3O)nnc2N)C[C@H](C)O1` [Example 243, 2-[6-amino-5-[(2S,6R)-2,6-dimethylmorpholin-4-yl]pyridazin-3-yl]phenol] as the compound, how does the IC50 [3] read?
Answer: Its IC50 is 0.0324 µM.

Question: Which IC50 [3] does the source give for `C[C@H]1CN(c2cc(-c3ccccc3O)nnc2N)C[C@H](C)O1` [Example 244, 2-[6-amino-5-[(2S,6S)-2,6-dimethylmorpholin-4-yl]pyridazin-3-yl]phenol] here?
Answer: Its IC50 is 0.0379 µM.

Question: `Nc1nnc(-c2ccccc2O)cc1OC1CCCNC1` (stereo not drawn) [Example 245, 2-(6-amino-5-(piperidin-3-yloxy)pyridazin-3-yl)phenol] was tested. Which IC50 [3] did it give?
Answer: Its IC50 is 0.281 µM.

Question: Which IC50 [3] does the source give for `CN1CCCC(Oc2cc(-c3ccccc3O)nnc2N)C1` (stereo not drawn) [Example 246, 2-(6-amino-5-((1-methylpiperidin-3-yl)oxy)pyridazin-3-yl)phenol] here?
Answer: Its IC50 is 0.26 µM.

Question: How did the IC50 [3] turn out when `CC(=O)N1CCCC(Oc2cc(-c3ccccc3O)nnc2N)C1` (stereo not drawn) [Example 247, 1-(3-((3-amino-6-(2-hydroxyphenyl)pyridazin-4-yl)oxy)piperidin-1-yl)ethanone] was run?
Answer: The IC50 was 0.137 µM.
